Laboratory results as given in patent US10039288B2, “Pathogenic infections” (University of Surrey, priority 2015, dated 2018).
Values after ≈ are worked out from the molar mass of the structure shown. Values joined by “and” are separate entries in the source; they are usually repeats but may differ in a detail not shown here. Identical values can stand only once. Like-named read-outs stand apart in the source and are kept apart here.

How the values were obtained:
P. viticola = tested on: P. viticola; parameters: species or system Plasmopara viticola
Plasmopara viticola [1] = assay: In vitro zoospore germination and activity, MIC(100%); assay type: cell-based; details: for Minimal inhibitory concentration (MIC(100%)) Plasmopara viticola: zoospore germination and activity, in vitro; for MIC: Plasmopara viticola, read-out: Minimal inhibitory concentration (MIC(100%)) Plasmopara viticola
Phytophthora infestans = assay type: cell-based; details: germination, in vitro
Plasmopara viticola [2] = assay: Preliminary screening of crude extracts and compounds (Table 3)
[3] = 0.147% mass/volume, Isopropanol

SMILES: C=C[C@@](C)(O)CC[C@H]1C(=C)C[C@H](O)[C@H]2C(C)(C)CCC[C@]12C [Compound 1, larixol]
- Efficacy (%) (P. viticola; 0.0147% mass/volume, Isopropanol): 36.3%
- Efficacy (%) (P. viticola; 0.025% mass/volume, Ethanol): 91.2%
- Efficacy (%) (P. viticola; 0.074% mass/volume, Isopropanol): 100.0%
- Efficacy (%) (P. viticola; 0.1% mass/volume, Ethanol): 98.8%
- Efficacy (%) (P. viticola; [3]): 99.5%
- Minimal inhibitory concentration (MIC(100%)) Plasmopara viticola (Plasmopara viticola [1]): 16 ppm
- Minimal inhibitory concentration (MIC(100%)) Phytophthora infestans (Phytophthora infestans): 500 ppm
- Activity (Plasmopara viticola [2]; sample 0.0147% mass/volume): 36.3%
- Activity (Plasmopara viticola [2]; sample 0.074% mass/volume): 100%
- Activity (Plasmopara viticola [2]; sample 0.147% mass/volume): 99.5%

SMILES: C=CC(C)(O)CCC1C(=C)CC(OC(C)=O)C2C(C)(C)CCCC12C (stereo not drawn) [Compound 2, larixyl acetate]
- Efficacy (%) (P. viticola; 0.01% mass/volume, Isopropanol): 24.5%
- Efficacy (%) (P. viticola; 0.012% mass/volume, Ethanol): 69.2%
- Efficacy (%) (P. viticola; 0.025% mass/volume, Ethanol): 83.3%
- Efficacy (%) (P. viticola; 0.05% mass/volume, Ethanol): 98.4%
- Efficacy (%) (P. viticola; 0.1% mass/volume, Ethanol): 99.9% and 99.4%
- Efficacy (%) (P. viticola; 0.12% mass/volume, Ethanol): 100.0%
- Efficacy (%) (P. viticola; [3]): 99.5%
- Minimal inhibitory concentration (MIC(100%)) Plasmopara viticola (Plasmopara viticola [1]): 4 ppm
- Minimal inhibitory concentration (MIC(100%)) Phytophthora infestans (Phytophthora infestans): 125 ppm
- Activity (Plasmopara viticola [2]; sample 0.012% mass/volume): 69.2%
- Activity (Plasmopara viticola [2]; sample 0.12% mass/volume): 100%

SMILES: COc1cc(C[C@H]2CO[C@H](c3ccc(O)c(OC)c3)[C@H]2CO)ccc1O [Compound 3, (+)-lariciresinol]
- MIC (Plasmopara viticola [1]): 250 µg/mL (≈ 694 µM)
- Minimal inhibitory concentration (MIC(100%)) Phytophthora infestans (Phytophthora infestans): No activity
- Activity (Plasmopara viticola [2]; sample 0.01% mass/volume): 14.4%
- Activity (Plasmopara viticola [2]; sample 0.1% mass/volume): 94.1%

SMILES: COc1cc(C[C@H]2CO[C@H](c3ccc(O)c(OC)c3)[C@H]2COC(C)=O)ccc1O [Compound 4, (+)-lariciresinol acetate]
- MIC (Plasmopara viticola [1]): 125 µg/mL
- Minimal inhibitory concentration (MIC(100%)) Phytophthora infestans (Phytophthora infestans): No actvity
- Activity (Plasmopara viticola [2]; sample 0.008% mass/volume): 13.1%
- Activity (Plasmopara viticola [2]; sample 0.036% mass/volume): 78.8%
- Activity (Plasmopara viticola [2]; sample 0.08% mass/volume): 92.4%
